Assay results: patent publication US20230390273A1, “4-PHENYL-TETRAHYDROPYRIDINE DERIVATIVES FOR TREATING HEARING DISEASES” (CILCARE DEV, priority 2021, published 2023)
Where a name gives a salt, the structure may show the parent alone.

How the values were obtained:
[1] = Solubility of paliroden and xaliproden in trans-tympanic compositions and in water (Example 2); assay type: physicochemical
Method: Eight compositions compatible with trans-tympanic injections were prepared: four thermoreversible gel compositions and four lipid-based mucoadhesive solutions. These eight compositions were prepared both with paliroden fumarate as active agent, and with xaliproden hydrochloride as active agent. The solubility of respectively paliroden and xaliproden in the compositions was measured.

male Wistar rats [2] = test: ABR/DPOAE assessment, noise-induced permanent hearing loss, immediate trans-tympanic treatment (Example 6); assay type: in vivo; details: T0+28 days, versus traumatized animals untreated or vehicle; treatment 2 hours and 8 days post-noise
Method: Fifty male Wistar rats were selected and distributed to treatment (“traumatized paliroden” group and “traumatized xaliproden” group) and control groups (“sham” group, “traumatized” group and “traumatized vehicle” group), each group comprising at least 9 rats at the end of the study. Randomization was performed using the ABR threshold in the left ear at 16 kHz as a criterium. The “sham” group consists in rats (n=11) that received neither noise exposure nor trans-tympanic injection. The “traumatized” group consists of rats (n=9) that received noise exposure only and no treatment. The “traumatized vehicle” group consists in rats (n=10) that received noise exposure and trans-tympanic injection in both ears of 30 μL of placebo (a composition comprising Poloxamer 407 (7,2% w/w), Poloxamer 188 (8% w/w) and Cremophor EL® (20% w/w) in phosphate buffer pH=7.4, the percentages being expressed relative to the total weight of the composition) between the eardrum and the round window by means of a needle which crosses the eardrum, 4 hours after the start of the noise exposure (i.e. injection of placebo at T0+4 hours, thus 2 hours after the end of the noise exposure) and 8 days post-noise exposure, under isoflurane anesthesia. […]

male Wistar rats [3] = test: ABR/DPOAE assessment, noise-induced permanent hearing loss, delayed trans-tympanic treatment (Example 7); assay type: in vivo; details: T0+28 days, versus traumatized animals untreated or vehicle; treatment 2 days and 9 days post-noise
Method: Forty male Wistar rats were selected and evenly distributed to treatment and control groups, each group comprising 8 rats at the end of the study. Randomization was performed using the ABR threshold in the left ear at 16 kHz as a criterium. The “sham” group consists in rats (n=8) that received neither noise exposure nor trans-tympanic injection. The “traumatized NaCl” group consists of rats (n=8) that received noise exposure only and trans-tympanic injections of a saline solution. The “traumatized vehicle” group consists in rats (n=8) that received noise exposure and trans-tympanic injections of placebo (a composition comprising Poloxamer 407 (7,2% w/w), Poloxamer 188 (8% w/w) and Cremophor EL® (20% w/w) in phosphate buffer pH=7.4, the percentages being expressed relative to the total weight of the composition). The “traumatized paliroden” group consists in rats (n=8) that received noise exposure and trans-tympanic injections of a composition comprising paliroden (fumarate salt), corresponding to composition 4P described in Example 2. The “traumatized xaliproden” group consists in rats (n=10) that received noise exposure and a trans-tympanic injection of a composition comprising xaliproden (hydrochloride salt), corresponding to composition 4X described in Example 2. […]

FC(F)(F)c1cccc(C2=CCN(CCc3ccc(-c4ccccc4)cc3)CC2)c1 [paliroden (fumarate salt), 1-[2-(4-biphenylyl)ethyl]-4-(3-trifluoromethylphenyl)-1,2,3,6-tetrahydropyridine]
solubility [1]: < 100 µg/mL
Effect on ABR thresholds, DPOAE amplitudes, ABR Wave I amplitudes (male Wistar rats [2]): did not show effect
Effect on ABR thresholds, DPOAE amplitudes, ABR Wave I amplitudes (male Wistar rats [3]): did not show effect

FC(F)(F)c1cccc(C2=CCN(CCc3ccc4ccccc4c3)CC2)c1 [xaliproden (hydrochloride salt), 1-[2-(2-naphthyl)ethyl]-4-(3-trifluoromethylphenyl)-1,2,3,6-tetrahydropyridine]
solubility [1]: < 100 µg/mL
Effect on ABR thresholds, DPOAE amplitudes, ABR Wave I amplitudes (male Wistar rats [2]): did not show effect
Effect on ABR thresholds, DPOAE amplitudes, ABR Wave I amplitudes (male Wistar rats [3]): did not show effect
